This is an account of results in US7074907B2, “Compound, process for producing the same and use thereof” (Nichirei Biosciences Inc., priority 2003, dated 2006).

A short description of experiment [1]: Test for linoleic acid autooxidation inhibitory effect. It is filed as biochemical. Conditions: sample 0.01% (w/v) in ethanol, stored in darkness at 40° C., degree of oxidation after two weeks, FIGS. 1 and 2. As for the experimental part:
<Test for Linoleic Acid Autooxidation Inhibitory Effect> 2 ml of 2.5% (w/v) linoleic acid was mixed with 4 ml of a 0.05 M phosphate buffer (pH 7.0) to prepare a reaction liquid. The compound of the present invention was dissolved in 99.5% ethanol at a concentration of 0.01% (w/v) 2 ml of the resulting solution and 2 ml of distilled water were added to the reaction liquid to make the total volume to 10 ml, mixed, and placed in a brown threaded bottle to prepare a sample. A negative control was prepared by adding, to the reaction liquid, only 2 ml of 99.5% ethanol and 2 ml of distilled water, without adding anything else. […] The measurement was carried out by mixing 0.1 ml of a sample, 9.7 ml of 75% ethanol, and 0.1 ml of a 30% ammonium thiocyanate solution, adding 0.1 ml of 2×10^−2 M ferrous chloride (3.5% hydrochloric acid solution) thereto, and exactly 3 minutes later, measuring the absorbance at 500 nm. From the measured values, the difference in absorbance and the rate of autooxidation after two weeks were obtained. The same measurement was made with the blanks, and ΔAbsorbance=(Absorbance of Main Sample)−(Absorbance of Blank) was taken. The absorbance increases with oxidation of the sample, and after reaching the maximum, decreases with consumption of the sample to be oxidized. Thus earlier occurrence of the peak absorbance represents weaker antioxidative activity. […]

Experiment [2] can be described thus: DPPH radical scavenging test. It counts as biochemical. Particulars: concentration of the sample solution; acetate buffer pH 5.5, 30° C., 30 minutes, absorbance at 517 nm. As for the experimental part: The antioxidative activity of the compound of not lower than 95% purity of the present invention prepared in Example 1 was evaluated using a stable radical, 1,1-diphenyl-2-picrylhydrazyl (DPPH).
To 1600 μl of 250 mM acetate buffer (pH=5.5), 1200 μl of ethanol and 400 μl of a sample (at an arbitrary concentration in ethanol) were mixed, and pre-incubated at 30° C. for 5 minutes. 800 μl of a 500 μM DPPH/ethanol solution was added, mixed, and left to stand at 30° C. for 30 minutes. Then the absorbance of the sample at 517 nm was measured.
A negative control was prepared by adding, instead of the sample solution, only ethanol to the reaction liquid without adding anything else. A positive control was prepared in the same way as for the present compound at the same concentration in ethanol, except that the present compound was replaced with α-tocopherol. From the measured absorbances, the radical scavenging ratio was calculated in accordance with the following formula. Scavenging ratio (%)=(1−[Absorbance of Sample]/[Absorbance of Control])×100
The scavenging ratios were measured with the sample concentration in the sample solution being changed stepwise, to determine the concentration of the sample solution at which the DPPH radical scavenging ratio was 50%. This concentration was taken as the 50% DPPH radical scavenged concentration. […]
(In general: Loss of DPPH colour is used to gauge radical scavenging.)

`O=C(O)c1cc(O)c(O)c(O)c1` [gallic acid]: the “antioxidative activity (oxidation inhibitory effect on linoleic acid)” value in experiment [1] is recorded as “weaker oxidation inhibitory effect on linoleic acid”.
Consider `Cc1c(C)c2c(c(C)c1O)CC[C@@](C)(CCC[C@H](C)CCC[C@H](C)CCCC(C)C)O2` [α-tocopherol], for which the “50% DPPH radical scavenged concentration” value in experiment [2] is 121.5 µg/mL.
